ChEMBL document CHEMBL4184299, “Regioselective and efficient enzymatic synthesis of antimicrobial andrographolide derivatives” (Bioorg Med Chem Lett, 2018)
Values after ≈ are worked out from the molar mass of the structure shown. Active and inactive are the calls of the source. The calls are words filed in the database; no cut-off is given here.

How the values were obtained:
Micrococcus luteus = experiment: Antimicrobial activity against Micrococcus luteus; format: functional
Staphylococcus aureus = experiment: Antimicrobial activity against Staphylococcus aureus; format: functional
Pseudomonas fluorescens = experiment: Antimicrobial activity against Pseudomonas fluorescens; format: functional
Escherichia coli [1] = experiment: Antimicrobial activity against Escherichia coli; format: functional
Aspergillus fumigatus = experiment: Antimicrobial activity against Aspergillus fumigatus; format: functional
Rhizopus arrhizus = experiment: Antimicrobial activity against Rhizopus oryzae; format: functional
Candida albicans = experiment: Antimicrobial activity against Candida albicans; format: functional
[2] = Hemolytic activity in human RBC at 25 ug/ml relative to control; format: ADME, cell-based, Erythrocyte; details: red blood cells (erythrocytes), read-out: Activity
Escherichia coli [3] = experiment: Disruption of membrane integrity in Escherichia coli assessed as protein leakage at MIC; format: functional, organism-based
Escherichia coli [4] = experiment: Induction of membrane permeability in Escherichia coli at MIC by DAPI/FITC/propidium iodide staining-based fluorescent microscopic analysis; format: functional, organism-based
Escherichia coli [5] = experiment: Induction of membrane disruption in Escherichia coli assessed as blurred membranes at MIC after 60 mins by SEM analysis; format: functional, organism-based
Escherichia coli [6] = experiment: Induction of membrane disruption in Escherichia coli assessed as deflated membranes at MIC after 60 mins by SEM analysis; format: functional, organism-based
Escherichia coli [7] = experiment: Induction of membrane disruption in Escherichia coli assessed as translucent membranes at MIC after 60 mins by SEM analysis; format: functional, organism-based

MIC (Micrococcus luteus) [µg/mL] | MIC (Staphylococcus aureus) [µg/mL] | MIC (Pseudomonas fluorescens) [µg/mL] | MIC (Escherichia coli [1]) [µg/mL] | MIC (Aspergillus fumigatus) [µg/mL] | MIC (Rhizopus arrhizus) [µg/mL] | MIC (Candida albicans) [µg/mL] | SMILES | hemolysis at 25 ug/ml [2] [%] | Activity (Escherichia coli [3]) | Activity (Escherichia coli [4]) | Activity (Escherichia coli [5]) | Activity (Escherichia coli [6]) | Activity (Escherichia coli [7])
16 (≈ 30 µM) | 16 (≈ 30 µM) | > 128 | 64 (≈ 120 µM) | > 128 | > 128 | 32 (≈ 60.1 µM) | C=C1CC[C@@H]2[C@](C)(CO)[C@H](O)CC[C@@]2(C)[C@@H]1C/C=C1/C(=O)OC[C@H]1OC(=O)CCCCCCCCCCC | 46 | Active |  |  |  | 
16 (≈ 39.4 µM) | 4 (≈ 9.84 µM) | 32 (≈ 78.7 µM) | 8 (≈ 19.7 µM) | > 128 | > 128 | 16 (≈ 39.4 µM) | C=C1CC[C@@H]2[C@](C)(CO)[C@H](O)CC[C@@]2(C)[C@@H]1C/C=C1/C(=O)OC[C@H]1OC(=O)CC | 6.4 |  | Active | Active | Active | Active
> 128 | > 128 | > 128 | > 128 | > 128 | > 128 | > 128 | C=C1CC[C@@H]2[C@](C)(CO)[C@H](O)CC[C@@]2(C)[C@@H]1C/C=C1/C(=O)OC[C@H]1O [ANDROGRAPHOLIDE] | 8.5 |  |  |  |  | 

More lines, now with the values behind:

SMILES | MIC (Micrococcus luteus) [µg/mL] | MIC (Staphylococcus aureus) [µg/mL] | MIC (Pseudomonas fluorescens) [µg/mL] | MIC (Escherichia coli [1]) [µg/mL] | MIC (Aspergillus fumigatus) [µg/mL] | MIC (Rhizopus arrhizus) [µg/mL] | MIC (Candida albicans) [µg/mL] | hemolysis at 25 ug/ml [2] [%] | Activity (Escherichia coli [3]) | Activity (Escherichia coli [4]) | Activity (Escherichia coli [5]) | Activity (Escherichia coli [6]) | Activity (Escherichia coli [7])
CN[C@@H]1[C@@H](O)[C@@H](O[C@@H]2[C@@H](O)[C@H](O[C@H]3O[C@H](CN)CC[C@H]3N)[C@@H](N)C[C@H]2N)OC[C@]1(C)O.O=S(=O)(O)O |  | 0.5 | 0.5 |  |  |  |  |  |  |  |  |  | 
C=C1CC[C@@H]2[C@](C)(CO)[C@H](O)CC[C@@]2(C)[C@@H]1C/C=C1/C(=O)OC[C@H]1OC(=O)CCCCCCCCC | 64 (≈ 127 µM) | 16 (≈ 31.7 µM) | 64 (≈ 127 µM) | 32 (≈ 63.4 µM) | > 128 | > 128 | > 128 | 35 | Active |  |  |  | 
C=C1CC[C@@H]2[C@](C)(CO)[C@H](O)CC[C@@]2(C)[C@@H]1C/C=C1/C(=O)OC[C@H]1OC(C)=O | 32 (≈ 81.5 µM) | 16 (≈ 40.8 µM) | 4 (≈ 10.2 µM) | 64 (≈ 163 µM) | > 128 | > 128 | 32 (≈ 81.5 µM) | 4.8 | Active |  |  |  | 
C=C1CC[C@@H]2[C@](C)(CO)[C@H](O)CC[C@@]2(C)[C@@H]1C/C=C1/C(=O)OC[C@H]1OC(=O)CCC | 32 (≈ 76.1 µM) | 8 (≈ 19 µM) | 16 (≈ 38 µM) | 4 (≈ 9.51 µM) | > 128 | > 128 | 64 (≈ 152 µM) | 7.1 | Active | Active | Active | Active | Active
C[C@@H]1[C@H](O)[C@@H](C)/C=C/C=C/C=C/C=C/C=C/C=C/C=C/[C@H](O[C@@H]2O[C@H](C)[C@@H](O)[C@H](N)[C@@H]2O)C[C@@H]2O[C@](O)(C[C@@H](O)C[C@@H](O)[C@H](O)CC[C@@H](O)C[C@@H](O)CC(=O)O[C@H]1C)C[C@H](O)[C@H]2C(=O)O [AMPHOTERICIN B] |  |  |  |  | 0.5 (≈ 0.541 µM) | 1 (≈ 1.08 µM) |  |  |  |  |  |  | 
